Laboratory results published in patent US9255094B2, “Pyrido[4,3-B]indoles and methods of use” (Medivation Technologies, Inc., priority 2009, dated 2016).

Columns and labels:
[1] = target: human recombinant histamine H1 receptor (Homo sapiens, UniProt P35367); assay: Histamine H1 radioligand binding assay ([3H]Pyrilamine); settings: compound at 0.1 μM, receptor expressed in CHO cells
In short: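 Membranes from CHO cells expressing the receptor, in 50 mM Tris-HCl pH 7.4 with 2 mM MgCl2, 100 mM NaCl and 250 mM sucrose, incubated with 1.2 nM [3H]pyrilamine for 180 min at 25° C; nonspecific binding defined with 1 μM pyrilamine.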

[2] = target: T1, human recombinant adrenergic α1D receptor (Homo sapiens, UniProt P25100); assay: Adrenergic α1D radioligand binding assay ([3H]Prozosin); settings: compound at 0.1 μM; 0.6 nM [3H]Prozosin; HEK-293 cells; read-out: Percent Inhibition of ligand binding, Adrenergic (0.1 μM) a1D
T1 construct: expressed in transfected cells; host or cells: human embryonic kidney (HEK-293) cells
T1 sequence (P25100 1-572): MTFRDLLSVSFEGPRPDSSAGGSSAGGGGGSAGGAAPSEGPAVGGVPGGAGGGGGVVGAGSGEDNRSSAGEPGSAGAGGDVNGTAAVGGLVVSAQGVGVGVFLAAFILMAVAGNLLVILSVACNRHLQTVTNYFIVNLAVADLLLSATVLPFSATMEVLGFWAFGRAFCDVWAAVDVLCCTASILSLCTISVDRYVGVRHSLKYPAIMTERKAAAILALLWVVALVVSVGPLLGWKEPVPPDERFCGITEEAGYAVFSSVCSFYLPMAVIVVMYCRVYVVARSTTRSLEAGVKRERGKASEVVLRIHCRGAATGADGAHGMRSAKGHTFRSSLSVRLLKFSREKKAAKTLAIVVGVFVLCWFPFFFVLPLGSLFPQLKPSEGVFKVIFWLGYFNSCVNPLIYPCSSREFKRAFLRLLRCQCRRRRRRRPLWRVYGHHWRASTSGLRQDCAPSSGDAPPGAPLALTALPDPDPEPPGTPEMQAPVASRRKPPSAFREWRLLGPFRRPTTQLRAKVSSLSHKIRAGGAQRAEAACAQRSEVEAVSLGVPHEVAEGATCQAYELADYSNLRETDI
Experimental: Compounds of invention were incubated with 0.6 nM [^3H]Prozosin for 60 min at 25° C. Non-specific binding was estimated in the presence of 10 μM phentolamine Receptor proteins were filtered and washed, the filters were then counted to determine [^3H]Prozosin specifically bound.

[3] = target: T2, human recombinant adrenergic α2A receptor (Homo sapiens, UniProt P08913); assay: Adrenergic α2A radioligand binding assay ([3H]MK-912); settings: compound at 0.1 μM; 1 nM [3H]MK-912; insect Sf9 cells; read-out: Percent Inhibition of ligand binding, Adrenergic (0.1 μM) a2A
T2 construct: expressed in transfected cells; host or cells: insect Sf9 cells
T2 sequence (P08913 1-465): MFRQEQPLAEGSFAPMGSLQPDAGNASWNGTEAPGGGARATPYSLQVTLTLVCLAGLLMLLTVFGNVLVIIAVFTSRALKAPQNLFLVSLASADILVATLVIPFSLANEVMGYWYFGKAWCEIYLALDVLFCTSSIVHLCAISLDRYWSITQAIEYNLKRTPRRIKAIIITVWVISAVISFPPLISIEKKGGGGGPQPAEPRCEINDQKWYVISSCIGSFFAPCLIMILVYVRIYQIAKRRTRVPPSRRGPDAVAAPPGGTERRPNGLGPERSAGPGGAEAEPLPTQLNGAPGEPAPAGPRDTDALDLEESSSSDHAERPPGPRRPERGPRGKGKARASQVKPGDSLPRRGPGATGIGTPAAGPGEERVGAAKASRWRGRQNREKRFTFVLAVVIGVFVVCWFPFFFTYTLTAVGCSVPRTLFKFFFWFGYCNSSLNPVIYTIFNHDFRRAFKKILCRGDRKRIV
Experimental: To evaluate in radioligand binding assays the activity of compounds of the invention, human recombinant adrenergic α2A receptor expressed in insect Sf9 cells (Uhlen S et al. J. Pharmacol. Exp. Ther. 271:1558, 1994) in a modified Tris-HCl buffer (50 mM Tris-HCl, pH 7.4, 12.5 mM MgCl2, 2 mM EDTA) was used. Compounds of invention were incubated with 1 nM [^3H]MK-912 for 60 min at 25° C. MK912 is (2S-trans)-1,3,4,5′,6,6′,7,12b-octahydro-1′,3′-dimethyl-spiro[2H-benzofuro[2,3-a]quinolizine-2,4′(1′H)-pyrimidin]-2′(3′H)-one hydrochloride Non-specific binding was estimated in the presence of 10 μM WB-4101 (2-(2,6-dimethoxyphenoxyethyl)aminomethyl-1,4-benzodioxane hydrochloride). Receptor proteins were filtered and washed, the filters were then counted to determine [^3H]MK-912 specifically bound.

Chain of human recombinant histamine H1 receptor (P35367 whole entry): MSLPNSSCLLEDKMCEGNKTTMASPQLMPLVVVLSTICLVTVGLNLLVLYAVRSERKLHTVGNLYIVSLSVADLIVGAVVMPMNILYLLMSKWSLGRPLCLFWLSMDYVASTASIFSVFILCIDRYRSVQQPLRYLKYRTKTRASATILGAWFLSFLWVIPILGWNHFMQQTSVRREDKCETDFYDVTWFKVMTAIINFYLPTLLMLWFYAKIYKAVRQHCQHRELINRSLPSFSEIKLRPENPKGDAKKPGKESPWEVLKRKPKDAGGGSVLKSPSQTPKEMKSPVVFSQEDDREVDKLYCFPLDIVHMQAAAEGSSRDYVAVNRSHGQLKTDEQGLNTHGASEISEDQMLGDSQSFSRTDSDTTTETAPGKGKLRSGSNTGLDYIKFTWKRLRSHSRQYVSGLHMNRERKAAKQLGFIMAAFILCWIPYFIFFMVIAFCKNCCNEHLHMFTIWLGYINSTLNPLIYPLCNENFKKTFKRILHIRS

Question: For `Cc1ccc2c(c1)c1c(n2CCc2ccc(C)nc2)CCN(CC(F)(F)F)C1` [Compound 1-65, 8-methyl-5-(2-(6-methylpyridin-3-yl)ethyl)-2-(2,2,2-trifluoroethyl)-2,3,4,5-tetrahydro-1H-pyrido[4,3-b]indole], which inhibition at 0.1 µM [1] is on record?
Answer: 11%

Question: What about the inhibition at 0.1 µM [2] of the same compound?
Answer: 4%

Question: And the inhibition at 0.1 µM [3]?
Answer: 6%
